The conditions of this data set: in n-hexane.

As for `CNC1=NCCC2(CCCCC2)S1`, the solubility (mole fraction) is 5.39e-05 (293.15 K); 6.26e-05 (298.15 K); 6.91e-05 (303.15 K); 8.03e-05 (310.15 K); 8.67e-05 (315.15 K).

Regarding `NC1=NCCC2(CCCCC2)S1`, the solubility (mole fraction) came out at 3.81e-05 (293.15 K); 5.62e-05 (298.15 K); 7.2e-05 (303.15 K); 0.000105 (310.15 K); 0.000129 (315.15 K).

Take `CCNC1=NCCC2(CCCCC2)S1`: the solubility (mole fraction) (293.15 K) was determined as 0.0025; the solubility (mole fraction) (298.15 K) came to 0.0028; the solubility (mole fraction) (303.15 K) was 0.0031; the solubility (mole fraction) (310.15 K) came to 0.0037; the solubility (mole fraction) (315.15 K) came out at 0.0043.

Broadly, the solubility (mole fraction) is the moles of solute divided by all moles in the saturated solution.

These data come from BigSolDB 2.1.
